Results published in PubChem BioAssay (NCI).
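Compound exposure: 48 hours, 5 concentrations, 96-well plates. GI50 marks 50% less growth. TGI is the concentration that stops growth completely.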

Experiments:
Assay in all cases: inhibition of tumour cell growth, NCI panel, 48 h
HOP-62 NSCLC = test system: HOP-62 NSCLC
SN12C renal = test system: SN12C renal
MCF7 breast = test system: MCF7 breast
MOLT-4 leukemia = test system: MOLT-4 leukemia
786-0 renal = test system: 786-0 renal
T-47D breast = test system: T-47D breast
SF-539 CNS = test system: SF-539 CNS
MALME-3M melanoma = test system: MALME-3M melanoma
SW-620 colon = test system: SW-620 colon
SF-295 CNS = test system: SF-295 CNS
MDA-MB-435 = test system: MDA-MB-435
M14 melanoma = test system: M14 melanoma
ACHN renal = test system: ACHN renal
SK-MEL-28 melanoma = test system: SK-MEL-28 melanoma
OVCAR-4 ovarian = test system: OVCAR-4 ovarian
NCI-H460 lung = test system: NCI-H460 lung
OVCAR-5 ovarian = test system: OVCAR-5 ovarian
UO-31 renal = test system: UO-31 renal
OVCAR-3 ovarian = test system: OVCAR-3 ovarian
UACC-62 melanoma = test system: UACC-62 melanoma
HCC-2998 colon = test system: HCC-2998 colon
LOX IMVI melanoma = test system: LOX IMVI melanoma
NCI-H23 lung = test system: NCI-H23 lung
HL-60(TB) leukemia = test system: HL-60(TB) leukemia
SF-268 CNS = test system: SF-268 CNS
TK-10 renal = test system: TK-10 renal
KM12 colon = test system: KM12 colon
UACC-257 melanoma = test system: UACC-257 melanoma
CAKI-1 renal = test system: CAKI-1 renal

SMILES: Cn1ccc2c(NCCN)c3c(c(NCCN)c21)C(=O)c1ccccc1C3=O
- TGI (HOP-62 NSCLC): 2720 nM
- GI50 (SN12C renal): 465 nM
- TGI (SN12C renal): 1610 nM
- GI50 (MCF7 breast): 442 nM
- TGI (MCF7 breast): 7220 nM
- GI50 (MOLT-4 leukemia): < 42.9 nM
- GI50 (786-0 renal): 443 nM
- TGI (786-0 renal): 3950 nM
- GI50 (T-47D breast): 27400 nM
- TGI (T-47D breast): 62000 nM
- GI50 (SF-539 CNS): 291 nM
- TGI (SF-539 CNS): 1550 nM
- GI50 (MALME-3M melanoma): 3670 nM
- TGI (MALME-3M melanoma): 15200 nM
- GI50 (SW-620 colon): 514 nM
- TGI (SW-620 colon): 2590 nM
- GI50 (SF-295 CNS): 968 nM
- TGI (SF-295 CNS): 5770 nM
- GI50 (MDA-MB-435): 1540 nM
- TGI (MDA-MB-435): 5590 nM
- GI50 (M14 melanoma): 2320 nM
- TGI (M14 melanoma): 8680 nM
- GI50 (ACHN renal): 2500 nM
- TGI (ACHN renal): 9040 nM
- GI50 (SK-MEL-28 melanoma): 15600 nM
- TGI (SK-MEL-28 melanoma): 36700 nM
- GI50 (OVCAR-4 ovarian): 9460 nM
- TGI (OVCAR-4 ovarian): 30800 nM
- GI50 (NCI-H460 lung): 448 nM
- TGI (NCI-H460 lung): 2240 nM
- GI50 (OVCAR-5 ovarian): 2780 nM
- TGI (OVCAR-5 ovarian): 12000 nM
- GI50 (UO-31 renal): 1520 nM
- TGI (UO-31 renal): 5760 nM
- GI50 (OVCAR-3 ovarian): 795 nM
- TGI (OVCAR-3 ovarian): 5370 nM
- GI50 (UACC-62 melanoma): 2170 nM
- TGI (UACC-62 melanoma): 5860 nM
- GI50 (HCC-2998 colon): 1640 nM
- TGI (HCC-2998 colon): 3990 nM
- GI50 (LOX IMVI melanoma): 651 nM
- TGI (LOX IMVI melanoma): 2000 nM
- GI50 (NCI-H23 lung): 1680 nM
- TGI (NCI-H23 lung): 4070 nM
- GI50 (HL-60(TB) leukemia): 2910 nM
- TGI (HL-60(TB) leukemia): 64100 nM
- GI50 (SF-268 CNS): 1470 nM
- TGI (SF-268 CNS): 7110 nM
- GI50 (TK-10 renal): 2530 nM
- TGI (TK-10 renal): 9960 nM
- GI50 (KM12 colon): 551 nM
- TGI (KM12 colon): 5710 nM
- GI50 (UACC-257 melanoma): 10200 nM
- TGI (UACC-257 melanoma): > 27700 nM
- GI50 (CAKI-1 renal): 2510 nM
- TGI (CAKI-1 renal): 9480 nM
